Measured values as given in patent US8519096B2, “Citrullinated peptides for diagnosing and prognosing rheumatoid arthritis” (Nestec S.A., priority 2009, dated 2013).
Non-standard residues stand in square brackets, D forms with d. *: point of attachment. Biotin = O=C1N[C@H]2[C@H](CS[C@H]2CCCCC(=O)*)N1; Cit = NC(=O)NCCC[C@H](N)C(=O)O

The substances below were run on IgG ACPAs (assay: ACPA ELISA with anti-human IgG secondary antibody). Details: Example 7, FIGS. 20-27.
Format: binding
Description: The synthetic citrullnated peptides set forth in Example 6, which were designed from synovial proteins, were synthesized and evaluated for their ability to diagnose and/or prognose RA. […] The peptides were then tested for IgG ACPA dose-response in samples of synovial fluid taken from both healthy patients and patients with RA.

Substance | IgG ACPA positive response (strong/moderate)
H2A-1: synthetic citrullinated peptide derived from histone (H2A), Table 8 (Biotin-GLELAGNAA[Cit]DNKKTRIIP[Cit]HLQG-NH2; SMILES CC[C@H](C)[C@H](NC(=O)[C@H](CCCNC(=N)N)NC(=O)[C@@H](NC(=O)[C@H](CCCCN)NC(=O)[C@H](CCCCN)NC(=O)[C@H](CC(N)=O)NC(=O)[C@H](CC(=O)O)NC(=O)[C@H](CCCNC(N)=O)NC(=O)[C@H](C)NC(=O)[C@H](C)NC(=O)[C@H](CC(N)=O)NC(=O)CNC(=O)[C@H](C)NC(=O)[C@H](CC(C)C)NC(=O)[C@H](CCC(=O)O)NC(=O)[C@H](CC(C)C)NC(=O)CNC(=O)CCCC[C@@H]1SC[C@@H]2NC(=O)N[C@@H]21)[C@@H](C)O)C(=O)N[C@H](C(=O)N1CCC[C@H]1C(=O)N[C@@H](CCCNC(N)=O)C(=O)N[C@@H](Cc1c[nH]cn1)C(=O)N[C@@H](CC(C)C)C(=O)N[C@@H](CCC(N)=O)C(=O)NCC(N)=O)[C@@H](C)CC) | moderate
Bip-2: synthetic citrullinated peptide derived from BiP, Table 8 (Biotin-DVRKDN[Cit]AVQKLR[Cit]EVEKAK[Cit]ALSSQHQ-NH2; SMILES CC(C)C[C@H](NC(=O)[C@H](C)NC(=O)[C@H](CCCNC(N)=O)NC(=O)[C@H](CCCCN)NC(=O)[C@H](C)NC(=O)[C@H](CCCCN)NC(=O)[C@H](CCC(=O)O)NC(=O)[C@@H](NC(=O)[C@H](CCC(=O)O)NC(=O)[C@H](CCCNC(N)=O)NC(=O)[C@H](CCCNC(=N)N)NC(=O)[C@H](CC(C)C)NC(=O)[C@H](CCCCN)NC(=O)[C@H](CCC(N)=O)NC(=O)[C@@H](NC(=O)[C@H](C)NC(=O)[C@H](CCCNC(N)=O)NC(=O)[C@H](CC(N)=O)NC(=O)[C@H](CC(=O)O)NC(=O)[C@H](CCCCN)NC(=O)[C@H](CCCNC(=N)N)NC(=O)[C@@H](NC(=O)[C@H](CC(=O)O)NC(=O)CCCC[C@@H]1SC[C@@H]2NC(=O)N[C@@H]21)C(C)C)C(C)C)C(C)C)C(=O)N[C@@H](CO)C(=O)N[C@@H](CO)C(=O)N[C@@H](CCC(N)=O)C(=O)N[C@@H](Cc1c[nH]cn1)C(=O)N[C@@H](CCC(N)=O)C(N)=O) | moderate
T9α1-4: synthetic citrullinated peptide derived from collagen (Coll.T9α1), Table 8 (Biotin-QHIKQVSM[Cit]VIQEHFAEMAASLK[Cit]G-NH2; SMILES CC[C@H](C)[C@H](NC(=O)[C@H](Cc1c[nH]cn1)NC(=O)[C@H](CCC(N)=O)NC(=O)CCCC[C@@H]1SC[C@@H]2NC(=O)N[C@@H]21)C(=O)N[C@@H](CCCCN)C(=O)N[C@@H](CCC(N)=O)C(=O)N[C@H](C(=O)N[C@@H](CO)C(=O)N[C@@H](CCSC)C(=O)N[C@@H](CCCNC(N)=O)C(=O)N[C@H](C(=O)N[C@H](C(=O)N[C@@H](CCC(N)=O)C(=O)N[C@@H](CCC(=O)O)C(=O)N[C@@H](Cc1c[nH]cn1)C(=O)N[C@@H](Cc1ccccc1)C(=O)N[C@@H](C)C(=O)N[C@@H](CCC(=O)O)C(=O)N[C@@H](CCSC)C(=O)N[C@@H](C)C(=O)N[C@@H](C)C(=O)N[C@@H](CO)C(=O)N[C@@H](CC(C)C)C(=O)N[C@@H](CCCCN)C(=O)N[C@@H](CCCNC(N)=O)C(=O)NCC(N)=O)[C@@H](C)CC)C(C)C)C(C)C) | strong
Apo a-4: synthetic citrullinated peptide derived from Apolipoprotein a, Table 8 (Biotin-HWHQ[Cit]TTEYYPNGGLT[Cit]GGLTRNYS[Cit]N-NH2; SMILES CC(C)C[C@H](NC(=O)CNC(=O)CNC(=O)[C@H](CC(N)=O)NC(=O)[C@@H]1CCCN1C(=O)[C@H](Cc1ccc(O)cc1)NC(=O)[C@H](Cc1ccc(O)cc1)NC(=O)[C@H](CCC(=O)O)NC(=O)[C@@H](NC(=O)[C@@H](NC(=O)[C@H](CCCNC(N)=O)NC(=O)[C@H](CCC(N)=O)NC(=O)[C@H](Cc1c[nH]cn1)NC(=O)[C@H](Cc1c[nH]c2ccccc12)NC(=O)[C@H](Cc1c[nH]cn1)NC(=O)CCCC[C@@H]1SC[C@@H]2NC(=O)N[C@@H]21)[C@@H](C)O)[C@@H](C)O)C(=O)N[C@H](C(=O)N[C@@H](CCCNC(N)=O)C(=O)NCC(=O)NCC(=O)N[C@@H](CC(C)C)C(=O)N[C@H](C(=O)N[C@@H](CCCNC(=N)N)C(=O)N[C@@H](CC(N)=O)C(=O)N[C@@H](Cc1ccc(O)cc1)C(=O)N[C@@H](CO)C(=O)N[C@@H](CCCNC(N)=O)C(=O)N[C@@H](CC(N)=O)C(N)=O)[C@@H](C)O)[C@@H](C)O) | strong
FBNT-7: synthetic citrullinated peptide derived from fibronectin, Table 8 (Biotin-GP[Cit]EDRVPHSPRED[Cit]VPHS[Cit]NSITLTNG-NH2; SMILES CC[C@H](C)[C@H](NC(=O)[C@H](CO)NC(=O)[C@H](CC(N)=O)NC(=O)[C@H](CCCNC(N)=O)NC(=O)[C@H](CO)NC(=O)[C@H](Cc1c[nH]cn1)NC(=O)[C@@H]1CCCN1C(=O)[C@@H](NC(=O)[C@H](CCCNC(N)=O)NC(=O)[C@H](CC(=O)O)NC(=O)[C@H](CCC(=O)O)NC(=O)[C@H](CCCNC(=N)N)NC(=O)[C@@H]1CCCN1C(=O)[C@H](CO)NC(=O)[C@H](Cc1c[nH]cn1)NC(=O)[C@@H]1CCCN1C(=O)[C@@H](NC(=O)[C@H](CCCNC(=N)N)NC(=O)[C@H](CC(=O)O)NC(=O)[C@H](CCC(=O)O)NC(=O)[C@H](CCCNC(N)=O)NC(=O)[C@@H]1CCCN1C(=O)CNC(=O)CCCC[C@@H]1SC[C@@H]2NC(=O)N[C@@H]21)C(C)C)C(C)C)C(=O)N[C@H](C(=O)N[C@@H](CC(C)C)C(=O)N[C@H](C(=O)N[C@@H](CC(N)=O)C(=O)NCC(N)=O)[C@@H](C)O)[C@@H](C)O) | moderate
T11α2-4: synthetic citrullinated peptide derived from collagen (Coll.T11α2), Table 8 (Biotin-GH[Cit]AQRSPQQQPS[Cit]LHRPQNQE-NH2; SMILES CC(C)C[C@H](NC(=O)[C@H](CCCNC(N)=O)NC(=O)[C@H](CO)NC(=O)[C@@H]1CCCN1C(=O)[C@H](CCC(N)=O)NC(=O)[C@H](CCC(N)=O)NC(=O)[C@H](CCC(N)=O)NC(=O)[C@@H]1CCCN1C(=O)[C@H](CO)NC(=O)[C@H](CCCNC(=N)N)NC(=O)[C@H](CCC(N)=O)NC(=O)[C@H](C)NC(=O)[C@H](CCCNC(N)=O)NC(=O)[C@H](Cc1c[nH]cn1)NC(=O)CNC(=O)CCCC[C@@H]1SC[C@@H]2NC(=O)N[C@@H]21)C(=O)N[C@@H](Cc1c[nH]cn1)C(=O)N[C@@H](CCCNC(=N)N)C(=O)N1CCC[C@H]1C(=O)N[C@@H](CCC(N)=O)C(=O)N[C@@H](CC(N)=O)C(=O)N[C@@H](CCC(N)=O)C(=O)N[C@@H](CCC(=O)O)C(N)=O) | moderate
